Measured values reported in patent US5138035A, “Cyclopeptide derivatives usable as selective inhibitors with respect to proteases with active serine” (Centre National de la Recherche Scientifique, priority 1988, dated 1992).
*1 amine or outer side, *2 acyl side, *3 side chain or, on linkers, in order; H or OH if unused. Where a SMILES comes first, the peptide text is derived from it. [ ]: non-standard residue; d: D form. X3 = O=C(c1cc(N[*:1])ccc1CBr)[*:2]

Columns and labels:
Type in all cases: biochemical
human t-PA = human t-PA (Homo sapiens, UniProt P00750); assay: Inactivation of human t-PA; details: 25° C., 0.05M Tris, 0.038M NaCl, 0.01% (v/v) Tween 80, pH 8.3, method b
Method: The inactivating or inhibiting properties of this derivative with respect to human t-PA are checked at 25° C. in a 0.05M Tris buffer, 0.038M NaCl, 0.01% (v/v) Tween 80 and pH 8.3.

bovine trypsin = target: T1, bovine trypsin (Bos taurus, UniProt P00760); assay: Inactivation of bovine trypsin (Hart and O'Brien / Kitz and Wilson kinetic methods); details: 25° C., 0.1M Tris, 0.01M CaCl2, pH 7.2 (Example 14), method a (Hart and O'Brien) or b (Kitz and Wilson)
T1 sequence (P00760 24-246): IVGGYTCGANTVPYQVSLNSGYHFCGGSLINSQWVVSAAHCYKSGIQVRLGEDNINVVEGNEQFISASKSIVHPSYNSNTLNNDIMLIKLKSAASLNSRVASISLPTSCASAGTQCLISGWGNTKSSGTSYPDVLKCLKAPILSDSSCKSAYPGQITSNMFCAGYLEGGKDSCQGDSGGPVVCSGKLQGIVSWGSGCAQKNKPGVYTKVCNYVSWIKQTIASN
Source text: (§1) The properties of the cyclopeptide derivative of formula (XVI) are checked and in particular its capacity to inactivate bovine trypsin or human urokinase using the methods of Kitz and Wilson (for trypsin and urokinase) and the method of Hart and O'Brien (for trypsin), 1973, published in Biochemistry, 12, pp. 2940-2945.
(§2) The properties of the cyclopeptide derivative of formula (XXIII) are checked and in particular its capacity to inactivate bovine trypsin or human urokinase using the same methods as in Example 2 and working at 25° C. with the 0.025M sodium phosphate buffer, 0.1M NaCl, 0.05% (v/v) Tween 80 and at pH 7.5 for human urokinase.
(§3) The kinetic measurements were carried out at 25° C. in the following buffers: 0.1M Tris, 0.01M CaCl2, pH 7.2 (bovine trypsin); 0.025M sodium phosphate, 0.1M NaCl, 0.05% (v/v) Tween 80, pH 7.5 (human urokinase); 0.05M Tris, 0.038M NaCl, 0.01% (v/v) Tween 80, pH 8.3 (human t-PA), 0.1M Tris (porcine pancreatic elastase), 0.1M sodium phosphate, 25% (v/v) glycerol (human plasmin). […]

elastase = elastase (Sus scrofa, UniProt P00772); assay: Action on elastase (Examples 2 and 4); details: species not given
human urokinase = human urokinase (Homo sapiens, UniProt P00749); assay: Inactivation of human urokinase (Kitz and Wilson / Hart and O'Brien kinetic methods); details: 25° C., 0.025M sodium phosphate, 0.1M NaCl, 0.05% (v/v) Tween 80, pH 7.5, method a and/or b
Source text: as §1, §2, §3

Sequence of human t-PA (P00750 36-562): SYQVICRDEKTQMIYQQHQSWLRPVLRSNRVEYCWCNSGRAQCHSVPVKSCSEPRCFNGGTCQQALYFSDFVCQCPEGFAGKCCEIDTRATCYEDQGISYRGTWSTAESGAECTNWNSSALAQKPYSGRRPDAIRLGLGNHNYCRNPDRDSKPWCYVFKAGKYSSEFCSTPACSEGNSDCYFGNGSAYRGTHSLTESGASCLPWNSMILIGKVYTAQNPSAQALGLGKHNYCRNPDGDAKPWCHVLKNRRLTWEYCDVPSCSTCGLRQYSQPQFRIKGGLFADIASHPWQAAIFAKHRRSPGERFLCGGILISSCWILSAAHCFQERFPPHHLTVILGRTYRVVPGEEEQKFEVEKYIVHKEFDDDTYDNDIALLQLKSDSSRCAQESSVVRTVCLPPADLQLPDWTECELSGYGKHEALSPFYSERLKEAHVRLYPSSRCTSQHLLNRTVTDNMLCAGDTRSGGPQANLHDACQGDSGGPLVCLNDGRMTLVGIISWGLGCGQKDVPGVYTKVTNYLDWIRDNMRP
Sequence of elastase (P00772 27-266): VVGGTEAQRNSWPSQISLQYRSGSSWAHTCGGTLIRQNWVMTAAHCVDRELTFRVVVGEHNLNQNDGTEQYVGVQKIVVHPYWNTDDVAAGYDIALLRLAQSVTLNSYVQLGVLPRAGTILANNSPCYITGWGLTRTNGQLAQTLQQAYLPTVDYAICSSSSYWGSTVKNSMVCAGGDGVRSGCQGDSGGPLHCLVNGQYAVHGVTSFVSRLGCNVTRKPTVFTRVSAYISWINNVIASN

## N=C(N)NCCC[C@@H]1NC(=O)CNC(=O)CNC(=O)CNC(=O)CNC(=O)c2cc(ccc2CBr)NC1=O [Compound (XXIII)] (cyclo(GGGGR[X3]))
Human t-PA
  apparent inactivation constant ki/Ki: 0.3 M⁻¹ s⁻¹
Bovine trypsin
  apparent inactivation constant ki/Ki: 150 M⁻¹ s⁻¹
elastase
  action on elastase: no action
Human urokinase
  apparent inactivation constant ki/Ki: 165 M⁻¹ s⁻¹
